Laboratory results published in PubChem BioAssay (NCI).
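Each compound was tested at five concentrations against cells in 96-well plates for 48 hours. TGI marks complete inhibition of growth.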

Columns and labels:
Experiment in all cases: inhibition of tumour cell growth, NCI panel, 48 h
A498 renal = system: A498 renal
A549 NSCLC = system: A549 NSCLC
ACHN renal = system: ACHN renal
BT-549 breast = system: BT-549 breast
CAKI-1 renal = system: CAKI-1 renal
COLO 205 colon = system: COLO 205 colon
DU-145 prostate = system: DU-145 prostate
HCC-2998 colon = system: HCC-2998 colon
HCT-116 colon = system: HCT-116 colon
HCT-15 colon = system: HCT-15 colon
HL-60(TB) leukemia = system: HL-60(TB) leukemia
HOP-62 NSCLC = system: HOP-62 NSCLC
HOP-92 NSCLC = system: HOP-92 NSCLC
HS 578T breast = system: HS 578T breast
HT29 colon = system: HT29 colon
IGROV1 ovarian = system: IGROV1 ovarian
K-562 leukemia = system: K-562 leukemia
KM12 colon = system: KM12 colon
LOX IMVI melanoma = system: LOX IMVI melanoma
M14 melanoma = system: M14 melanoma
MDA-MB-231 breast = system: MDA-MB-231 breast
MDA-MB-435 = system: MDA-MB-435
MDA-N = system: MDA-N
MOLT-4 leukemia = system: MOLT-4 leukemia
NCI-H226 lung = system: NCI-H226 lung
NCI-H23 lung = system: NCI-H23 lung
NCI-H460 lung = system: NCI-H460 lung
NCI/ADR-RES ovarian = system: NCI/ADR-RES ovarian
OVCAR-3 ovarian = system: OVCAR-3 ovarian
OVCAR-4 ovarian = system: OVCAR-4 ovarian
OVCAR-5 ovarian = system: OVCAR-5 ovarian
OVCAR-8 ovarian = system: OVCAR-8 ovarian
PC-3 prostate = system: PC-3 prostate
RPMI-8226 leukemia = system: RPMI-8226 leukemia
SF-268 CNS = system: SF-268 CNS
SF-539 CNS = system: SF-539 CNS
SK-MEL-2 melanoma = system: SK-MEL-2 melanoma
SK-MEL-28 melanoma = system: SK-MEL-28 melanoma
SN12C renal = system: SN12C renal
SNB-19 CNS = system: SNB-19 CNS
SR leukemia = system: SR leukemia
T-47D breast = system: T-47D breast
TK-10 renal = system: TK-10 renal
U251 CNS = system: U251 CNS
UACC-257 melanoma = system: UACC-257 melanoma
UACC-62 melanoma = system: UACC-62 melanoma
UO-31 renal = system: UO-31 renal
786-0 renal = system: 786-0 renal
CCRF-CEM leukemia = system: CCRF-CEM leukemia
EKVX NSCLC = system: EKVX NSCLC
MALME-3M melanoma = system: MALME-3M melanoma
MCF7 breast = system: MCF7 breast
NCI-H522 lung = system: NCI-H522 lung
RXF 393 renal = system: RXF 393 renal
SF-295 CNS = system: SF-295 CNS
SK-MEL-5 melanoma = system: SK-MEL-5 melanoma
SK-OV-3 ovarian = system: SK-OV-3 ovarian
SNB-75 CNS = system: SNB-75 CNS
SW-620 colon = system: SW-620 colon

`CC(C)C[C@@H](NC(=O)[C@@H](Cc1cccc2ccccc12)NC(=O)N1CCOCC1)B(O)O` was tested, and the TGI (A498 renal) was 93.8 µM, the TGI (A549 NSCLC) was greater than 100 µM and the TGI (ACHN renal) was greater than 100 µM. For the same compound, the TGI (BT-549 breast) was greater than 100 µM, the TGI (CAKI-1 renal) was greater than 100 µM and the TGI (COLO 205 colon) was greater than 100 µM. It also gave a TGI (DU-145 prostate) greater than 100 µM, a TGI (HCC-2998 colon) greater than 100 µM and a TGI (HCT-116 colon) greater than 100 µM. The TGI (HCT-15 colon) was greater than 100 µM, the TGI (HL-60(TB) leukemia) was greater than 100 µM and the TGI (HOP-62 NSCLC) was greater than 100 µM. The TGI (HOP-92 NSCLC) was greater than 100 µM, the TGI (HS 578T breast) was greater than 100 µM and the TGI (HT29 colon) was greater than 100 µM. It also gave a TGI (IGROV1 ovarian) greater than 100 µM, a TGI (K-562 leukemia) greater than 100 µM and a TGI (KM12 colon) greater than 100 µM. It also gave a TGI (LOX IMVI melanoma) greater than 100 µM, a TGI (M14 melanoma) of 78.7 µM and a TGI (MDA-MB-231 breast) greater than 100 µM. It also gave a TGI (MDA-MB-435) of 42.9 µM, a TGI (MDA-N) of 41.8 µM and a TGI (MOLT-4 leukemia) of 96.5 µM. The TGI (NCI-H226 lung) was 36.8 µM, the TGI (NCI-H23 lung) was greater than 100 µM and the TGI (NCI-H460 lung) was greater than 100 µM. It also gave a TGI (NCI/ADR-RES ovarian) greater than 100 µM, a TGI (OVCAR-3 ovarian) of 85.8 µM and a TGI (OVCAR-4 ovarian) greater than 100 µM. The TGI (OVCAR-5 ovarian) was greater than 100 µM, the TGI (OVCAR-8 ovarian) was greater than 100 µM and the TGI (PC-3 prostate) was greater than 100 µM. The TGI (RPMI-8226 leukemia) was greater than 100 µM, the TGI (SF-268 CNS) was greater than 100 µM and the TGI (SF-539 CNS) was greater than 100 µM. It also gave a TGI (SK-MEL-2 melanoma) greater than 100 µM, a TGI (SK-MEL-28 melanoma) of 64.1 µM and a TGI (SN12C renal) greater than 100 µM. It also gave a TGI (SNB-19 CNS) greater than 100 µM, a TGI (SR leukemia) greater than 100 µM and a TGI (T-47D breast) greater than 100 µM. The TGI (TK-10 renal) was 90.7 µM, the TGI (U251 CNS) was greater than 100 µM and the TGI (UACC-257 melanoma) was greater than 100 µM. For the same compound, the TGI (UACC-62 melanoma) was greater than 100 µM and the TGI (UO-31 renal) was greater than 100 µM.

Work on `O=C1OC(c2ccccc2)=N/C1=C\c1ccc(Br)cc1` yielded a TGI (786-0 renal) greater than 100 µM, a TGI (A498 renal) greater than 100 µM and a TGI (A549 NSCLC) greater than 100 µM. For the same compound, the TGI (ACHN renal) was greater than 100 µM, the TGI (BT-549 breast) was greater than 100 µM and the TGI (CAKI-1 renal) was greater than 100 µM. It also gave a TGI (CCRF-CEM leukemia) greater than 100 µM, a TGI (COLO 205 colon) greater than 100 µM and a TGI (DU-145 prostate) greater than 100 µM. For the same compound, the TGI (EKVX NSCLC) was greater than 100 µM, the TGI (HCC-2998 colon) was greater than 100 µM and the TGI (HCT-116 colon) was greater than 100 µM. It also gave a TGI (HCT-15 colon) greater than 100 µM, a TGI (HL-60(TB) leukemia) greater than 100 µM and a TGI (HOP-62 NSCLC) greater than 100 µM. The TGI (HOP-92 NSCLC) was greater than 100 µM, the TGI (HS 578T breast) was greater than 100 µM and the TGI (HT29 colon) was greater than 100 µM. For the same compound, the TGI (IGROV1 ovarian) was greater than 100 µM, the TGI (K-562 leukemia) was greater than 100 µM and the TGI (KM12 colon) was greater than 100 µM. For the same compound, the TGI (LOX IMVI melanoma) was greater than 100 µM, the TGI (M14 melanoma) was greater than 100 µM and the TGI (MALME-3M melanoma) was greater than 100 µM. The TGI (MCF7 breast) was greater than 100 µM, the TGI (MDA-MB-231 breast) was greater than 100 µM and the TGI (MDA-MB-435) was greater than 100 µM. The TGI (MDA-N) was greater than 100 µM, the TGI (MOLT-4 leukemia) was greater than 100 µM and the TGI (NCI-H226 lung) was greater than 100 µM. For the same compound, the TGI (NCI-H23 lung) was greater than 100 µM, the TGI (NCI-H460 lung) was greater than 100 µM and the TGI (NCI-H522 lung) was greater than 100 µM. The TGI (OVCAR-3 ovarian) was greater than 100 µM, the TGI (OVCAR-4 ovarian) was greater than 100 µM and the TGI (OVCAR-5 ovarian) was greater than 100 µM. The TGI (OVCAR-8 ovarian) was greater than 100 µM, the TGI (PC-3 prostate) was greater than 100 µM and the TGI (RPMI-8226 leukemia) was greater than 100 µM. The TGI (RXF 393 renal) was greater than 100 µM, the TGI (SF-268 CNS) was greater than 100 µM and the TGI (SF-295 CNS) was greater than 100 µM. For the same compound, the TGI (SF-539 CNS) was greater than 100 µM, the TGI (SK-MEL-2 melanoma) was greater than 100 µM and the TGI (SK-MEL-28 melanoma) was greater than 100 µM. The TGI (SK-MEL-5 melanoma) was greater than 100 µM, the TGI (SK-OV-3 ovarian) was greater than 100 µM and the TGI (SN12C renal) was greater than 100 µM. It also gave a TGI (SNB-19 CNS) greater than 100 µM, a TGI (SNB-75 CNS) greater than 100 µM and a TGI (SR leukemia) greater than 100 µM. The TGI (SW-620 colon) was greater than 100 µM, the TGI (T-47D breast) was greater than 100 µM and the TGI (TK-10 renal) was greater than 100 µM. For the same compound, the TGI (U251 CNS) was greater than 100 µM, the TGI (UACC-257 melanoma) was greater than 100 µM and the TGI (UACC-62 melanoma) was greater than 100 µM.

`CCOC(=O)C(=Cc1ccccc1Cl)C(=O)OCC` gave a TGI (786-0 renal) of 2.82 µM, a TGI (A498 renal) of 5 µM and a TGI (A549 NSCLC) of 5.21 µM. It also gave a TGI (ACHN renal) of 7.62 µM, a TGI (BT-549 breast) of 4.59 µM and a TGI (CAKI-1 renal) of 4.27 µM. The TGI (CCRF-CEM leukemia) was 4.69 µM, the TGI (COLO 205 colon) was 3.02 µM and the TGI (DU-145 prostate) was 3.96 µM. For the same compound, the TGI (EKVX NSCLC) was 7.39 µM, the TGI (HCC-2998 colon) was greater than 10 µM and the TGI (HCT-116 colon) was 1.88 µM. The TGI (HCT-15 colon) was 4.83 µM, the TGI (HL-60(TB) leukemia) was 3.83 µM and the TGI (HOP-62 NSCLC) was 4.05 µM. For the same compound, the TGI (HOP-92 NSCLC) was 4.96 µM, the TGI (HS 578T breast) was greater than 10 µM and the TGI (HT29 colon) was 3.3 µM. It also gave a TGI (IGROV1 ovarian) of 7.31 µM, a TGI (K-562 leukemia) of 5.28 µM and a TGI (KM12 colon) of 2.67 µM. It also gave a TGI (LOX IMVI melanoma) of 4.5 µM, a TGI (M14 melanoma) of 2.95 µM and a TGI (MALME-3M melanoma) of 3.58 µM. It also gave a TGI (MDA-MB-231 breast) of 3.39 µM, a TGI (MDA-MB-435) of 3.29 µM and a TGI (MDA-N) of 4.93 µM. It also gave a TGI (MOLT-4 leukemia) of 6.27 µM, a TGI (NCI-H226 lung) of 5.56 µM and a TGI (NCI-H23 lung) of 3.83 µM. The TGI (NCI-H460 lung) was 7.22 µM, the TGI (NCI-H522 lung) was 4.02 µM and the TGI (NCI/ADR-RES ovarian) was 5.97 µM. It also gave a TGI (OVCAR-3 ovarian) of 2.76 µM, a TGI (OVCAR-4 ovarian) of 5.05 µM and a TGI (OVCAR-5 ovarian) of 4.13 µM. It also gave a TGI (OVCAR-8 ovarian) of 2.12 µM, a TGI (PC-3 prostate) of 4.3 µM and a TGI (RPMI-8226 leukemia) of 4.87 µM. It also gave a TGI (RXF 393 renal) of 3.78 µM, a TGI (SF-268 CNS) of 6.05 µM and a TGI (SF-295 CNS) of 6.31 µM. For the same compound, the TGI (SF-539 CNS) was 4.13 µM, the TGI (SK-MEL-2 melanoma) was 4.59 µM and the TGI (SK-MEL-28 melanoma) was 3.53 µM. For the same compound, the TGI (SK-MEL-5 melanoma) was 3.6 µM, the TGI (SK-OV-3 ovarian) was greater than 10 µM and the TGI (SN12C renal) was 3.91 µM. For the same compound, the TGI (SNB-19 CNS) was 3.53 µM, the TGI (SNB-75 CNS) was 0.617 µM and the TGI (SR leukemia) was greater than 10 µM. For the same compound, the TGI (SW-620 colon) was 2.6 µM, the TGI (T-47D breast) was 8.86 µM and the TGI (U251 CNS) was 3.07 µM. It also gave a TGI (UACC-257 melanoma) of 3.21 µM, a TGI (UACC-62 melanoma) of 3.67 µM and a TGI (UO-31 renal) of 3.2 µM.
